Where “and” joins values, the source holds several entries; their conditions need not be identical. Equal values may be shown once. Entries after “also recorded” stand apart in the source; their conditions may differ. Where a name gives a salt, the structure may show the parent alone. Read-outs that look alike come from different tables or passages of the source.
Assays:
[1] = tested on: K562 CML cells (empty vector); experiment: MTT cell proliferation assay, K562 cells with empty vector; assay type: cell-based, human; settings: for IC50: Empty vector pCMV/GFP, drug 48 h, read-out: IC50 (median-effect dose, MTT)
Description: The effect of the drugs on cell proliferation was measured by MTT assay (FIG. 18A, right panel; mean±S.D; n=3). Dose response to cell death curves of K562 cells exposed to drugs were generated with the CalcuSyn® software package (Biosoft, Ferguson, MO) for each of at least three experiments.

[2] = tested on: caspase-3 activation in K562 cells; experiment: Caspase-3 activation (apoptosis) assay in transfected K562 cells; assay type: cell-based, human; settings: for Effect of 35 INS BCR-ABL gene transfer on drug-induced caspase-3 activation: K562 cells transfected with 35 INS BCR-ABL
Description: To perform caspase assays, K562 cells were transiently transfected in 6-well dishes using the above procedure. […] Typically, 15-25 μg of lysates were analyzed for protease activity by continuously measuring the release of fluorogenic substrate Ac-DEVD-aminofluoromethylcoumarin product from EMD (San Diego, CA) at 37° C., as described (Capdeville et al., Nat. Rev. Drug Discov. 2002, 1:493).
Induction of apoptosis measured by caspase-3 activation (mean [SD]; n=3) in K562 cells transfected with the different plasmids as described above and shown in FIG. 18B.
(§1) Lysates were prepared at the times indicated and examined by caspase-3 assay (left) or by immunoblots using specific antibodies for BIM and actin (right) (see FIGS. 22A-22B).

[3] = tested on: K562 cells transfected with pMIG/BCR-ABL1p210; experiment: MTT cell proliferation assay, K562 cells transfected with pMIG/BCR-ABL1p210; assay type: cell-based, human; settings: for Resistance to the drug caused by wild-type BCR-ABL1p210 expression: K562 cells transfected with BCR-ABL1p210; for IC50: pMIG/BCR-ABL1p210 0.1 μg DNA, K562 cells, drug 48 h, read-out: IC50 (median-effect dose, MTT)
Description: (§2) K562 cells were cotransfected with an increasing amount (0 to 100 ng) of plasmid pMIG/35 INS BCR-ABL and 100 ng of either pMIG/BCR-ABL1p210 or empty plasmid (pMIG). […] The effect of the drugs on cell proliferation was measured by MTT assay (FIG. 18A, right panel; mean±S.D; n=3). Dose response to cell death curves of K562 cells exposed to drugs were generated with the CalcuSyn® software package (Biosoft, Ferguson, MO) for each of at least three experiments.

CML patients = settings: cited from earlier work
[4] = tested on: BIM expression in K562 cells; experiment: BIM induction by immunoblot in K562 cells; assay type: cell-based, human; settings: 24 to 48 hours' incubation
Description: as §1

[5] = tested on: tyrosine kinase (TK) activity in K562 cells transfected with BCR-ABL1p210; experiment: Universal Tyrosine Kinase Assay on cell extract, K562 BCR-ABL1p210; assay type: cell-based, human; settings: relative to no-drug control, imatinib 1.2 μM, nilotinib 5 nM, dasatinib 5 nM, MK 0457 2 μM, homoharringtonine X μM
Description: (§3) K562 cells were cotransfected with increasing amounts of plasmid encoding pMIG/35 INS bcr-abl and either 100 ng of pMIG/BCR-ABL1p210 or the same amount of control vector (empty vector plasmid). […] Rabbit polyclonal IgG anti-Lyn, anti-Aurora A, and anti-Aurora B were obtained from Santa Cruz Biotechnology, (Santa Cruz, CA); rabbit polyclonal IgG anti-p-Src, anti-p-StatS, and anti-p-Crkl were obtained from Cell Signaling (Danvers, MA). Goat anti-rabbit PE (Santa Cruz Biotechnology) was used as the secondary antibody. LYN, p-CRKL, p-SRC, p-STATS, and Aurora A and B status were monitored. All experiments were repeated at least three times. Asterisk indicates p<0.05 relative to Control (empty vector).
(§4) Tyrosine kinase assay was performed using the Universal Tyrosine Kinase Assay Kit (GenWay Biotech, San Diego, CA) according to the manufacturer's instruction. The universal protein tyrosine kinase substrate peptide, Poly (Glu-Tyr) (4:1, 20-50 kDa) was pre-coated onto 96-well microtiter plates. Serial dilutions of prepared cell extract and 5-point standards (with known tyrosine kinase activities) were added to the plate in triplicates along with an ATP-containing kinase buffer. After incubation at 37° C. for 30 min to allow phosphorylation of tyrosine residues, the sample solution was removed and the wells washed with Washing buffer (PBS with 0.05% Tween-20) and blocked with Blocking solution. Anti-phosphotyrosine (PY20)-horse radish peroxidase (HRP) conjugate was then added to the plate. After incubation at 37° C. for 30 min, the PY20-HRP solution was replaced by HRP substrate solution (TMBZ). For colorimetric determination of PTK activity, the sample's specific absorbance at 450 nm was calculated from the standard curve.

[6] = tested on: phosphorylation of CrkL, LYN, pSRC, pSTAT5, Aurora A and B in K562 cells; experiment: Phosphorylation of BCR-ABL substrates, K562 cells; assay type: cell-based, human
Description: (§5) The effect of a compound on the kinase activity of the BCR-ABL is assessed by monitoring tyrosine phosphorylation profile of the cellular proteins. […] Genetically modified cells comprising recombinant bcr-abl or variant so of bcr-abl including the splice variant are grown in presence of various amounts of a compound for treating CML patients. […] Amount of phosphorylated CrkL protein can be measured by using detectably labeled anti-phospho CrkL antibody. In one embodiment, the detectable label is phycoerythrin. The signal can be detected by Flow cytometer. Alternatively, the signal can be detected by Fluorescent Microtiter plate reader.
as §3, with “times.” for “times. Asterisk indicates p<0.05 relative to Control (empty vector).”

[7] = tested on: tyrosine kinase (TK) activity in K562 cells (empty vector); experiment: Universal Tyrosine Kinase Assay on cell extract, K562 empty vector; assay type: cell-based, human; settings: relative to no-drug control, imatinib 1.2 μM, nilotinib 5 nM, dasatinib 5 nM, MK 0457 2 μM, homoharringtonine X μM
Description: as §3, §4

[8] = tested on: tyrosine kinase (TK) activity in K562 cells transfected with BCR-ABL1 35INS; experiment: Universal Tyrosine Kinase Assay on cell extract, K562 BCR-ABL1 35INS; assay type: cell-based, human
Description: as §3, with “times.” for “times. Asterisk indicates p<0.05 relative to Control (empty vector).”
as §4

[9] = tested on: K562 cells transfected with pMIG/35 INS bcr-abl; experiment: MTT cell proliferation/viability assay, K562 cells transfected with pMIG/35 INS bcr-abl; assay type: cell-based, human; settings: for IC50: read-out: IC50 (median-effect dose, MTT)
Description: as §2

[10] = tested on: phosphorylation of CrkL and other substrates in K562 cells transfected with pMIG/35 INS bcr-abl; experiment: Phosphorylation of BCR-ABL substrates, K562 cells transfected with pMIG/35 INS bcr-abl; assay type: cell-based, human
Description: as §5
as §3, with “times.” for “times. Asterisk indicates p<0.05 relative to Control (empty vector).”

[11] = BCR-ABL1 35INS, relative to no-drug control, imatinib 1.2 μM, nilotinib 5 nM, dasatinib 5 nM, MK 0457 2 μM, homoharringtonine X μM

Compound | Cell death in K562 cells [1] | Effect of 35 INS BCR-ABL gene transfer on drug-induced caspase-3 activation [2] | Resistance to the drug caused by wild-type BCR-ABL1p210 expression [3] | Relative tyrosine kinase activity [5] [%] | IC50 ([1]; Homo sapiens) [nM] | Effect on Aurora A and B [6] | Relative tyrosine kinase activity [7] [%] | IC50 ([3]; Homo sapiens) [nM] | Relative tyrosine kinase activity [8, 11] [%] | other results
Cc1ccc(NC(=O)c2ccc(CN3CCN(C)CC3)cc2)cc1Nc1nccc(-c2cccnc2)n1 [Imatinib, imatinib mesylate] | induced cell death | induced resistance; also recorded: increase was inhibited | did not induce resistance |  |  |  |  |  |  | Caspase-3 activation over time ([2]; CML K562 cells, continuous treatment): increased with time; Primary resistance rate (failure to achieve any hematologic response) (CML patients; accelerated-phase CML): 9%; Secondary resistance rate (hematologic recurrence) (CML patients; accelerated-phase CML): 32%; Primary resistance rate (failure to achieve any hematologic response) (CML patients; blast-phase CML): 51%; Secondary resistance rate (hematologic recurrence) (CML patients; blast-phase CML): 41%; Primary resistance rate (failure to achieve any hematologic response) (CML patients; chronic-phase CML): 3%; Secondary resistance rate (hematologic recurrence) (CML patients; chronic-phase CML): 22%; BIM expression / induction [4]: expressed at increased levels
Cc1nc(Nc2ncc(C(=O)Nc3c(C)cccc3Cl)s2)cc(N2CCN(CCO)CC2)n1 [Dasatinib, dasatinib] |  |  |  | 20.6 | 12 | no effect | 15.6 | 11 |  | 
Cc1cc(Nc2cc(N3CCN(C)CC3)nc(Sc3ccc(NC(=O)C4CC4)cc3)n2)n[nH]1 [MK-0457] |  | did not affect the rate of caspase-3 activation | did not induce resistance | 96.7 |  |  | 87.3 |  | 100 | IC50 [1]: 1810 nM; Resistance to the drug caused by 35 INS BCR-ABL expression (MTT) ([9]; K562 cells transfected with pMIG/35 INS bcr-abl): did not induce resistance; IC50 ([9]; pMIG/35 INS bcr-abl 0.01 μg DNA, K562 cells, drug 48 h): 2000 nM; IC50 ([9]; pMIG/35 INS bcr-abl 0.05 μg DNA, K562 cells, drug 48 h): 1980 nM; IC50 ([9]; pMIG/35 INS bcr-abl 0.1 μg DNA, K562 cells, drug 48 h): 1540 nM; IC50 [3]: 1790 nM; Effect of 35 INS BCR-ABL expression on inhibition of kinases/phosphorylation by the drug [10]: no effect on inhibition
COC(=O)C[C@](O)(CCCC(C)(C)O)C(=O)O[C@@H]1C(OC)=C[C@]23CCCN2CCc2cc4c(cc2[C@H]13)OCO4 [HHT, homoharringtonine] |  |  |  | 79.2 | 63 |  | 59.8 | 54 | 75.4 | IC50 ([9]; Homo sapiens, K562, 48 h, pMIG/35 INS bcr-abl 0.01 μg DNA, K562 cells, drug 48 h): 61 nM; IC50 ([9]; Homo sapiens, K562, 48 h, pMIG/35 INS bcr-abl 0.05 μg DNA, K562 cells, drug 48 h): 49 nM; IC50 ([9]; Homo sapiens, K562, 48 h, pMIG/35 INS bcr-abl 0.1 μg DNA, K562 cells, drug 48 h): 54 nM
Cc1cn(-c2cc(NC(=O)c3ccc(C)c(Nc4nccc(-c5cccnc5)n4)c3)cc(C(F)(F)F)c2)cn1 [Nilotinib, nilotinib] | induced cell death | induced resistance | did not induce resistance | 33.1 | 42 | no effect | 23.4 | 42 |  | Relative tyrosine kinase activity [8]: 76.2%; Phosphorylation of CrkL, LYN, pSRC and pSTAT5 [6]: inhibited phosphorylation; Relative potency in induction of apoptosis (caspase-3 activation) ([2]; K562 cells): more potent than imatinib; Increase of IC50 with pMIG/35 INS bcr-abl vector [9]: 1.7 fold; IC50 ([9]; Homo sapiens, K562, 48 h): 52 nM; IC50 [9]: 54 nM and 71 nM
